# Counter-ions that a name gives are not always drawn.
# Columns and labels:
# rGluR3 AMPA receptor = target: T1, rGluR3 AMPA receptor (Rattus norvegicus, UniProt P19492); test: Functional test for AMPA-receptor activity, two electrode voltage clamp in Xenopus laevis oocytes; assay type: cell-based; details: oocytes expressing rat GluR3-(flop) AMPA receptor; read-out: IC50-value (antagonist)
# T1 construct: expressed in transfected cells; host or cells: Xenopus laevis oocytes injected with cRNA
# Protocol: For the determination of functional agonism or antagonism at the AMPA-receptor, experiments can be performed on Xenopus oocytes as previously described in detail (Urwyler et al., Mol. Pharmacol. 2001, 60, 963-971). Briefly, two electrode voltage clamp recordings are performed from Xenopus laevis oocytes expressing GluR3 AMPA receptors. Plasmids for the rat GluR3-(flop) (Hollmann et al., Science 1991, 252, 851-853) are linearized and transcribed into capped cRNA using an in vitro RNA synthesis kit (Ambion, Texas) with T7 Polymerase. Stock solutions are kept in 70% EtOH. Before use, cRNA is precipitated and resuspended in DEPC-treated water. Oocytes are injected with RNA coding the rat GluR3-(flop) AMPA receptor. For recordings, oocytes are placed in a perfusion chamber with continuous gravity flow of frog Ringer's solution. For recordings from oocytes expressing rGluR3-(flop) receptors frog, Ringer's solution containing Mg^2+ (81 mM NaCl; 2.5 mM KCl; 1 mM CaCl2; 1 mM MgCl2, 2.5 mM NaHCO3, 5 mM HEPES, pH 7.4) is used.
# Test compounds are washed in with gravity.
# AMPA-Receptor = test: [3H] CNQX binding test (AMPA-receptor binding); details: brain membranes, 5 nM [3H]-CNQX, 4° C., 40 min
# Protocol: CNQX binding test (Honoré et al. Biochem. Pharmacol. 1989, 38: 3207-3212). This test is performed as follows: • Brain membranes: The animals are decapitated, the brain removed and homogenized in 10 volumes of ice-cold 10% sucrose with a glass/Teflon homogenizer at positions 5 for 30 sec. The membranes are centrifuged at 1000×g for 10 min, and the supernatant centrifuged at 20,000×g for 15 min. The resulting pellet is resuspended in 10 volumes of cold water with a tissue homogenizer (Brinkman Polytron) at position 5 for 15 sec and the suspension centrifuged at 8000×g for 10 min. The supernatant including the buffy layer is centrifuged at 40,000×g for 20 min, the pellet resuspended in 5 volumes of water and the suspension frozen (20-30 min in dry ice/MeOH) and thawed (water-bath at 37° C.) twice. The suspension is centrifuged at 40,000×g for 20 min, the pellet resuspended in 50 mM HEPES/KOH, pH 7.5, and centrifuged at 40,000×g for 10 min. […]
# Two hundred μL of the scintillation fluid Microscint 20 (Packard) are added and the radioactivity is counted in a Packard Topcount scintillation counter at an efficiency of 40-45%. […]
# T1 sequence (P19492 23-888): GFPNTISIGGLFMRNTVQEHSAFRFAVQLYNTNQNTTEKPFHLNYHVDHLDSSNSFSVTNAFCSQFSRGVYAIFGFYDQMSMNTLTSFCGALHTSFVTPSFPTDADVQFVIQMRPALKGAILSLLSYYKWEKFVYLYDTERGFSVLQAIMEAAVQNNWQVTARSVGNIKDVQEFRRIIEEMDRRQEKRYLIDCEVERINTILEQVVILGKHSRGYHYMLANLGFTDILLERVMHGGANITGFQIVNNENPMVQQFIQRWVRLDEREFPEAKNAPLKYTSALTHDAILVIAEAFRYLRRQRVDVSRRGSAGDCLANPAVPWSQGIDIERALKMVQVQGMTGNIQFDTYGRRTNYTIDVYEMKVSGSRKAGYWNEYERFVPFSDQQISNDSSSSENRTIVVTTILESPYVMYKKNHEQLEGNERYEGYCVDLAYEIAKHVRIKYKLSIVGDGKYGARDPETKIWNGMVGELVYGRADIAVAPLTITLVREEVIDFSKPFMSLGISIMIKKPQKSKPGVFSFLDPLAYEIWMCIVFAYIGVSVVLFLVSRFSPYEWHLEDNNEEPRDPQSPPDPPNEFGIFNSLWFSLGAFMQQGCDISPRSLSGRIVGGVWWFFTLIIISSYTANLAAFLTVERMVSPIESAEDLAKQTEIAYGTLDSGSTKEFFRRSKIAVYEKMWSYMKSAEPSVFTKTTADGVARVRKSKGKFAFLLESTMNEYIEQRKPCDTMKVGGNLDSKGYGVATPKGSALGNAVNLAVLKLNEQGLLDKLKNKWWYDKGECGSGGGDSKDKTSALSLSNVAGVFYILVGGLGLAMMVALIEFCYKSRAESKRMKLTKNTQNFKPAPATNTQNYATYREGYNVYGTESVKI
melting point [°C],IC50 (rGluR3 AMPA receptor) [nM],IC50 (AMPA-Receptor) [nM],Compound
227 to 229,,,"COC(c1cc2c(=O)n(NS(C)(=O)=O)c(=O)[nH]c2cc1C(F)(F)F)C(C)C (stereo not drawn) [Example 23, N-[6-(1-Methoxy-2-methyl-propyl)-2,4-dioxo-7-trifluoromethyl-1,4-dihydro-2H-quinazolin-3-yl]-methanesulfonamide]"
165 to 169,,,"CC(O)c1cccc(-c2cc3c(=O)n(NS(C)(=O)=O)c(=O)[nH]c3cc2C(F)(F)F)c1 (stereo not drawn) [Example 37, N-{6-[3-(1-Hydroxy-ethyl)-phenyl]-2,4-dioxo-7-trifluoromethyl-1,4-dihydro-2H-quinazolin-3-yl}-methanesulfonamide]"
282 to 284,,,"CS(=O)(=O)Nn1c(=O)[nH]c2cc(C(F)(F)F)c(-c3cccc(CN)c3)cc2c1=O (as salt: hydrochloride) [Example 38, N-[6-(3-Aminomethyl-phenyl)-2,4-dioxo-7-trifluoromethyl-1,4-dihydro-2H-quinazolin-3-yl]methanesulfonamide]"
346 to 348,,,"CN(C)Cc1cccc(-c2cc3c(=O)n(NS(C)(=O)=O)c(=O)[nH]c3cc2C(F)(F)F)c1 [Example 39, N-[6-(3-Dimethylaminomethyl-phenyl)-2,4-dioxo-7-trifluoromethyl-1,4-dihydro-2H-quinazolin-3-yl]-methanesulfonamide]"
145 to 147,,,"CS(=O)(=O)Nn1c(=O)[nH]c2cc(C(F)(F)F)c(-c3ccc(C#N)cc3)cc2c1=O [Example 35, N-[6-(4-Cyano-phenyl)-2,4-dioxo-7-trifluoromethyl-1,4-dihydro-2H-quinazolin-3-yl]-methanesulfonamide]"
228 to 231,,,"CC(C)C(=O)c1cc2c(=O)n(NS(C)(=O)=O)c(=O)[nH]c2cc1C(F)(F)F [Example 21, N-(6-Isobutyryl-2,4-dioxo-7-trifluoromethyl-1,4-dihydro-2H-quinazolin-3-yl)-methanesulfonamide]"
243 to 247,,,"CS(=O)(=O)Nn1c(=O)[nH]c2cc(C(F)(F)F)c(CCCO)cc2c1=O [Example 25, N-[6-(3-Hydroxy-propyl)-2,4-dioxo-7-trifluoromethyl-1,4-dihydro-2H-quinazolin-3-yl]-methanesulfonamide]"
262 to 265,,,"CS(=O)(=O)Nn1c(=O)[nH]c2cc(C(F)(F)F)c(C(=O)C(F)(F)F)cc2c1=O [Example 20, N-[2,4-Dioxo-6-(2,2,2,-trifluoro-acetyl)-7-trifluoromethyl-1,4-dihydro-2H-quinazolin-3-yl]-methanesulfonamide]"
275 to 280,,,"CS(=O)(=O)Nn1c(=O)[nH]c2cc(C(F)(F)F)c(C3CCCCO3)cc2c1=O (stereo not drawn) [Example 24, N-[2,4-Dioxo-6-(tetrahydro-pyran-2-yl)-7-trifluoromethyl-1,4-dihydro-2H-quinazolin-3-yl]-methanesulfonamide]"
220 to 222,,,"CC(=O)c1cccc(-c2cc3c(=O)n(NS(C)(=O)=O)c(=O)[nH]c3cc2C(F)(F)F)c1 [Example 36, N-[6-(3-Acetyl-phenyl)-2,4-dioxo-7-trifluoromethyl-1,4-dihydro-2H-quinazolin-3-yl]-methanesulfonamide]"
232 to 235,,,"CC(C)C(O)c1cc2c(=O)n(NS(C)(=O)=O)c(=O)[nH]c2cc1C(F)(F)F (stereo not drawn) [Example 22, N-[6-(1-Hydroxy-2-methyl-propyl)-2,4-dioxo-7-trifluoromethyl-1,4-dihydro-2H-quinazolin-3-yl]methanesulfonamide]"
291 to 292,,,"CS(=O)(=O)Nn1c(=O)[nH]c2cc(C(F)(F)F)c(-c3cccc(C#N)c3)cc2c1=O [Example 34, N-[6-(3-Cyano-phenyl)-2,4-dioxo-7-trifluoromethyl-1,4-dihydro-2H-quinazolin-3-yl]-methanesulfonamide]"

# The remaining lines, values behind:
Compound,melting point [°C],IC50 (rGluR3 AMPA receptor) [nM],IC50 (AMPA-Receptor) [nM]
"CCC(O)c1cc2c(=O)n(NS(C)(=O)=O)c(=O)[nH]c2cc1C(F)(F)F (stereo not drawn) [Example 7, N-[6-(1-Hydroxy-propyl)-2,4-dioxo-7-trifluoromethyl-1,4-dihydro-2H-quinazolin-3-yl]-methanesulfonamide]",219 to 222,,
"CCCC(=O)c1cc2c(=O)n(NS(C)(=O)=O)c(=O)[nH]c2cc1C(F)(F)F [Example 10, N-(6-Butyryl-2,4-dioxo-7-trifluoromethyl-1,4-dihydro-2H-quinazolin-3-yl)-methanesulfonamide]",236 to 239,,
"CCOC(C)c1cc2c(=O)n(NS(C)(=O)=O)c(=O)[nH]c2cc1C(F)(F)F (stereo not drawn) [Example 4, N-[6-(1-Ethoxy-ethyl)-2,4-dioxo-7-trifluoromethyl-1,4-dihydro-2H-quinazolin-3-yl]-methanesulfonamide]",105 to 112,< 3000,< 1000
"CC(O)c1cc2c(=O)n(NS(C)(=O)=O)c(=O)[nH]c2cc1C(F)(F)F (racemic) [Example 2, N-[6-(1-Hydroxy-ethyl)-2,4-dioxo-7-trifluoromethyl-1,4-dihydro-2H-quinazolin-3-yl]-methanesulfonamide]",263 to 268,,
"CCCCOC(C)c1cc2c(=O)n(NS(C)(=O)=O)c(=O)[nH]c2cc1C(F)(F)F (stereo not drawn) [Example 15, N-[6-(1-Butoxy-ethyl)-2,4-dioxo-7-trifluoromethyl-1,4-dihydro-2H-quinazolin-3-yl]-methanesulfonamide]",84 to 90,,
"CC(OC1CCCC1)c1cc2c(=O)n(NS(C)(=O)=O)c(=O)[nH]c2cc1C(F)(F)F (stereo not drawn) [Example 17, N-[6-(1-Cyclopentyloxy-ethyl)-2,4-dioxo-7-trifluoromethyl-1,4-dihydro-2H-quinazolin-3-yl]-methanesulfonamide]",188 to 192,,
"CC(=O)c1cc2c(=O)n(NS(C)(=O)=O)c(=O)[nH]c2cc1C(F)(F)F [Example 1, N-(6-Acetyl-2,4-dioxo-7-trifluoromethyl-1,4-dihydro-2H-quinazolin-3-yl)-methanesulfonamide]",258 to 265,,
"COC(C)c1cc2c(=O)n(NS(C)(=O)=O)c(=O)[nH]c2cc1C(F)(F)F (stereo not drawn) [Example 3, N-[6-(1-Methoxy-ethyl)-2,4-dioxo-7-trifluoromethyl-1,4-dihydro-2H-quinazolin-3-yl]-methanesulfonamide]",233 to 236,,
"CCCC(O)c1cc2c(=O)n(NS(C)(=O)=O)c(=O)[nH]c2cc1C(F)(F)F (stereo not drawn) [Example 11, N-[6-(1-Hydroxy-butyl)-2,4-dioxo-7-trifluoromethyl-1,4-dihydro-2H-quinazolin-3-yl]-methanesulfonamide]",223 to 226,,
"CCCOC(C)c1cc2c(=O)n(NS(C)(=O)=O)c(=O)[nH]c2cc1C(F)(F)F (stereo not drawn) [Example 14, N-[2,4-Dioxo-6-(1-propoxy-ethyl)-7-trifluoromethyl-1,4-dihydro-2H-quinazolin-3-yl]-methanesulfonamide]",95 to 105,,
"CCC(=O)c1cc2c(=O)n(NS(C)(=O)=O)c(=O)[nH]c2cc1C(F)(F)F [Example 6, N-(2,4-Dioxo-6-propionyl-7-trifluoromethyl-1,4-dihydro-2H-quinazolin-3-yl)-methanesulfonamide]",234 to 236,,
"CC(C)OC(C)c1cc2c(=O)n(NS(C)(=O)=O)c(=O)[nH]c2cc1C(F)(F)F (stereo not drawn) [Example 5, N-[6-(1-Isopropoxy-ethyl)-2,4-dioxo-7-trifluoromethyl-1,4-dihydro-2H-quinazolin-3-yl]-methanesulfonamide]",110 to 115,,
"CS(=O)(=O)Nn1c(=O)[nH]c2cc(C(F)(F)F)c(C3CCCO3)cc2c1=O (stereo not drawn) [Example 12, N-[2,4-Dioxo-6-(tetrahydro-furan-2-yl)-7-trifluoromethyl-1,4-dihydro-2H-quinazolin-3-yl]-methanesulfonamide]",254 to 257,,

# From patent US8513268B2, “1H-quinazoline-2,4-diones processes for their production, pharmaceutical compositions, and treatment for epilepsy” (Novartis AG, priority 2005, dated 2013)
